Measurements taken from ChEMBL document CHEMBL1201862, “PubChem BioAssay data set” (2004).
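Cells were grown in 96-well plates and exposed to each compound for 48 hours at five concentrations; endpoints were interpolated linearly between bracketing concentrations, or set to the highest concentration if not reached. The concentration for 50% growth inhibition is given as GI50.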 The source made the active and inactive calls. Cut-off read from the data, not from the text of the source: active = GI50 up to about 1.1 µM and inactive = higher.

Legend:
Test in all cases: NCI tumour cell line growth inhibition, 48 h
[1] = test system: A498
[2] = test system: ACHN
[3] = test system: CAKI-1
[4] = test system: KM12
[5] = test system: LOX IMVI
[6] = test system: LXFL 529
[7] = test system: M14
[8] = test system: OVCAR-4
[9] = test system: OVCAR-8
[10] = test system: SF-268
[11] = test system: SF-295
[12] = test system: SK-MEL-28
[13] = test system: SK-MEL-2
[14] = test system: SK-OV-3
[15] = test system: SNB-75
[16] = test system: UO-31
[17] = test system: HOP-92
[18] = test system: OVCAR-5
[19] = test system: MDA-MB-435
[20] = test system: NCI/ADR-RES

Measured: GI50

CC(C)CCC[C@@H](C)C1CCC2[C@@H]3CC=C4C[C@@H](C(=O)NCC[N+](C)(C)CCCS(=O)(=O)[O-])CC[C@]4(C)C3CC[C@@]21C (some centres undefined)
inactive: [1] > 10 µM | [2] 18.5 µM | [3] 14.2 µM | [4] 17.4 µM | [5] 11.7 µM | [6] 18.8 µM | [7] 17.2 µM | [8] 20.3 µM | [9] 18.8 µM | [10] 21.1 µM | [11] 20 µM | [12] 19.8 µM | [13] 18.2 µM | [14] 16.8 µM | [15] 20.2 µM | [16] 19.8 µM

N#[N+][c-]1c(-c2ccccc2)n[nH]c1=O
inactive: [2] > 100 µM | [3] > 100 µM | [17] > 100 µM | [4] > 100 µM | [5] > 100 µM | [6] > 100 µM | [7] > 100 µM | [8] > 100 µM | [18] > 100 µM | [9] > 100 µM | [10] > 100 µM | [11] > 100 µM | [12] > 100 µM | [13] > 100 µM | [14] > 100 µM | [15] > 100 µM

COC(=O)/C(C#N)=C1\CCC(OC)N1C (centres undefined)
inactive: [2] > 100 µM | [3] > 100 µM | [4] > 100 µM | [5] > 100 µM | [6] > 100 µM | [7] > 100 µM | [8] > 100 µM | [18] > 100 µM | [9] > 100 µM | [10] > 100 µM | [11] > 100 µM | [12] > 100 µM | [13] > 100 µM | [14] > 100 µM | [15] > 100 µM | [16] > 100 µM

NC1=NS(=O)(=O)N=C(N)C1=Cc1ccc([N+](=O)[O-])o1
inactive: [2] 16.9 µM | [17] 13.8 µM | [4] 18.5 µM | [5] 17.2 µM | [6] 17.1 µM | [7] 14 µM | [8] 19.9 µM | [18] 18.9 µM | [9] 17.3 µM | [10] 17.5 µM | [11] 25.4 µM | [12] 16 µM | [13] 16.1 µM | [14] 35 µM | [15] 16.3 µM | [16] 17.9 µM

CCN(CC)C(=O)CCn1ccc(=O)[nH]c1=O
inactive: [2] > 100 µM | [4] > 100 µM | [5] > 100 µM | [6] > 100 µM | [7] > 100 µM | [8] > 100 µM | [18] > 100 µM | [9] > 100 µM | [10] > 100 µM | [11] > 100 µM | [12] > 100 µM | [13] > 100 µM | [15] 43.1 µM | [16] > 100 µM

CSC(=O)C[C@@]12O[C@@H]([C@@H](C)C3CCC4[C@@H]5C(O)CC6=CC(=O)C=C[C@]6(C)C5CC[C@@]43C)C[C@](C)(O1)C(C)(C)O2 (some centres undefined)
inactive: [1] 16.4 µM | [3] 18.6 µM | [17] 9.86 µM | [4] 16 µM | [5] 12.1 µM | [6] 13.2 µM | [7] 16.3 µM | [8] 13.5 µM | [18] 17.7 µM | [9] 17.8 µM | [10] 16.4 µM | [11] 14.5 µM | [12] 17.9 µM | [13] 22.9 µM | [14] 16.6 µM | [16] 12.3 µM

O=[N+]([O-])c1ccc(/N=N/c2c(O)ccc3cc(S(=O)(=O)O)ccc23)cc1
inactive: [1] > 100 µM | [2] > 100 µM | [3] > 100 µM | [17] > 100 µM | [4] > 100 µM | [5] > 100 µM | [7] > 100 µM | [19] > 100 µM | [20] > 100 µM | [8] > 100 µM | [18] > 100 µM | [9] > 100 µM | [10] > 100 µM | [11] > 100 µM | [12] > 100 µM | [13] > 100 µM | [14] > 100 µM | [15] > 100 µM | [16] > 100 µM

c1ccc(NNN2NC(c3ccccc3)C2c2ccccc2)cc1 (centres undefined)
inactive: [1] > 100 µM | [2] > 100 µM | [3] > 100 µM | [17] > 100 µM | [4] > 100 µM | [5] > 100 µM | [7] > 100 µM | [19] > 100 µM | [20] 97.3 µM | [8] 86.1 µM | [18] > 100 µM | [9] > 100 µM | [10] > 100 µM | [11] > 100 µM | [12] > 100 µM | [13] > 100 µM | [14] > 100 µM | [15] > 100 µM | [16] 36.6 µM

O=C(NCO)NCOCn1c(=O)n(CO)c(=O)n(CO)c1=O
inactive: [1] > 100 µM | [2] 49.1 µM | [3] 40.6 µM | [4] 31 µM | [5] 19 µM | [6] 20 µM | [7] 17.1 µM | [8] 32.1 µM | [18] > 100 µM | [9] 32.9 µM | [10] 31.3 µM | [11] > 91 µM | [12] 22.1 µM | [13] 17.9 µM | [14] 99.8 µM | [15] 35.8 µM | [16] > 100 µM
